Values after ≈ are worked out from the molar mass of the structure shown. Values joined by “and” are separate entries in the source; they are usually repeats but may differ in a detail not shown here. Identical values can stand only once. Like-named read-outs stand apart in the source and are kept apart here.
Key:
[1] = Lipophilicity determination by RP-HPLC (capacity factor k / log k); assay type: physicochemical; conditions: C18, MeOH 70% / H2O 30%, isocratic
Excerpt: A Waters Alliance 2695 XE HPLC separation module and a Waters Photodiode Array Detector 2996 (Waters Corp., Milford, MA, USA) were used. A Symmetry C18 5 μm, 4.6 × 250 mm, Part No. WAT054275 (Waters Corp., Milford, MA, USA) chromatographic column was used. The HPLC separation process was monitored by Empower 2 Chromatography Data Software, Waters 2009 (Waters Corp., Milford, MA, USA). A mixture of MeOH p.a. (70%) and H2O-HPLC - Mili-Q Grade (30%) was used as a mobile phase. The total flow of the column was 1.0 mL/min, injection volume, 30 μL, column temperature, 45°C, and sample temperature, 10°C. The detection wavelength of 210 nm was chosen. The KI methanolic solution was used for the dead time (t D) determination. Retention times (t R) were measured in minutes. The capacity factors k were calculated using the Empower 2 Chromatography Data Software according to formula k = (t R − t D)/t D, where t R is the retention time of the solute, whereas t D denotes the dead time obtained using an unretained analyte.
Lipophilicity is a property that has a major effect on ADME/Tox properties as well as pharmacological activity, because drugs mostly cross biological membranes through passive transport, which strongly depends on their lipophilicity. Lipophilicity has been studied and applied as an important drug property for decades. This parameter was measured by means of RP-HPLC and expressed as logarithm of capacity factor k. The procedure was performed under isocratic conditions with methanol as an organic modifier in the mobile phase using an end-capped nonpolar C18 stationary RP column. The hydrophobic contributions (expressed as distributive parameters π) of individual substituents in C(2) position of 2-[(E)-2-substituted-ethenyl]-1,3-benzoxazole scaffold were predicted using ACD/Percepta ver. 2012 (Advanced Chemistry Development, Inc., Toronto, ON, Canada). The results are shown in Table 1 and the match of the experimental determined lipophilicity log k with calculated distributive parameters π is illustrated in Figure 1.

[2] = system: Mycobacterium tuberculosis My 331/88; assay: In vitro antimycobacterial evaluation (MIC, Sula semisynthetic medium); assay type: cell-based
M. avium My 330/88 = assay: as above; assay type: cell-based; conditions: Mycobacterium avium
M. kansasii My 235/80 = assay: as above; assay type: cell-based; conditions: Mycobacterium kansasii
[3] = system: photosynthetic electron transport (PET) in spinach chloroplasts; assay: Inhibition of photosynthetic electron transport (PET) in spinach chloroplasts (DCPIP photoreduction); assay type: biochemical, Spinacia oleracea L.; conditions: DCPIP as electron acceptor
Procedure: Chloroplasts were prepared from spinach (Spinacia oleracea L.) according to Masarovicova and Kralova. The inhibition of photosynthetic electron transport (PET) in spinach chloroplasts was determined spectrophotometrically (Genesys 6, Thermo Scientific), using an artificial electron acceptor 2,6-dichlorophenol-indophenol (DCPIP) according to Kralova et al., and the rate of photosynthetic electron transport was monitored as a photoreduction of DCPIP. The measurements were carried out in phosphate buffer (0.02 mol/L, pH 7.2) containing sucrose (0.4 mol/L), MgCl2 (0.005 mol/L), and NaCl (0.015 mol/L). The chlorophyll content was 30 mg/L in these experiments and the samples were irradiated (~100 W/m^2 with 10 cm distance) with a halogen lamp (250 W) using a 4 cm water filter to prevent warming of the samples (suspension temperature 22°C). The studied compounds were dissolved in DMSO due to their limited water solubility. […] The inhibitory efficiency of the studied compounds was expressed by IC50 values, that is, by molar concentration of the compounds causing 50% decrease in the oxygen evolution rate relative to the untreated control.

[4] = system: aromatic amino acids in photosynthetic proteins of spinach chloroplasts; assay: Aromatic amino acids (AAA) fluorescence in spinach chloroplasts; assay type: biochemical, Spinacia oleracea L.; conditions: increasing concentration (0, 3.2, 6.4, 9.6 μmol/L), excitation 275 nm
Procedure: The fluorescence emission spectra of aromatic amino acids (AAA) in spinach chloroplasts were recorded on fluorescence spectrophotometer F-2000 (Hitachi, Tokyo, Japan) using excitation wavelength λ ex = 275 nm, excitation slit 20 nm, and emission slit 10 nm. The phosphate buffer used for dilution of the chloroplast suspension was the same as described above. Due to low aqueous solubility the compounds were added to the chloroplast suspension in DMSO solution. The DMSO concentration in all samples was the same as in the control (10%). The chlorophyll concentration in the chloroplast suspension was 10 mg/L. The interaction of studied compounds with aromatic amino acids (AAA) occurring in photosynthetic proteins of spinach chloroplasts situated in PS II was monitored by the quenching of AAA fluorescence at 334 nm.

[5] = MY331/88, 336 h, 14d incubation
[6] = MY331/88, 504 h, 21d incubation
[7] = MY330/88, 336 h, 14d incubation
[8] = MY330/88, 504 h, 21d incubation
[9] = MY235/80, 336 h, 14d incubation, read-out: MIC MK
[10] = MY235/80, 504 h, 21d incubation, read-out: MIC MK
[11] = MY235/80, incubation time not stated, read-out: inhibitory activity (MIC) against M. kansasii

SMILES | log k [1] | MIC [2, 5] [µM] | MIC [2, 6] [µM] | MIC (M. avium My 330/88; [7]) [µM] | MIC (M. avium My 330/88; [8]) [µM] | MIC (M. kansasii My 235/80; [9]) [µM] | MIC (M. kansasii My 235/80; [10]) [µM] | IC50 [3] [µM] | AAA fluorescence at 334 nm [4] | MIC (M. kansasii My 235/80; [11]) [µM]
C(=C\c1nc2ccccc2o1)/c1ccccc1 [Compound 1, 2-[(E)-2-Phenylethenyl]-1,3-benzoxazole] | 0.9409 | 125 (≈ 27.7 µg/mL) | 125 (≈ 27.7 µg/mL) | 62.5 (≈ 13.8 µg/mL) | 125 (≈ 27.7 µg/mL) | 125 (≈ 27.7 µg/mL) | 125 (≈ 27.7 µg/mL) | 149 |  | 
COc1ccccc1/C=C/c1nc2ccccc2o1 [Compound 2, 2-[(E)-2-(2-Methoxyphenyl)ethenyl]-1,3-benzoxazole] | 0.9325 | 125 (≈ 31.4 µg/mL) | 125 (≈ 31.4 µg/mL) | 62.5 (≈ 15.7 µg/mL) | 125 (≈ 31.4 µg/mL) | 125 (≈ 31.4 µg/mL) | 125 (≈ 31.4 µg/mL) | 76.3 |  | 
COc1ccc(/C=C/c2nc3ccccc3o2)cc1 [Compound 3, 2-[(E)-2-(4-Methoxyphenyl)ethenyl]-1,3-benzoxazole] | 0.9382 | 62.5 (≈ 15.7 µg/mL) | 62.5 (≈ 15.7 µg/mL) | 32 (≈ 8.04 µg/mL) | 62.5 (≈ 15.7 µg/mL) | 62.5 (≈ 15.7 µg/mL) | 125 (≈ 31.4 µg/mL) | 216 | strong decline | 
CSc1ccc(/C=C/c2nc3ccccc3o2)cc1 [Compound 4, 2-{(E)-2-[4-(Methylsulfanyl)phenyl]ethenyl}-1,3-benzoxazole] | 1.1225 | 62.5 (≈ 16.7 µg/mL) | 125 (≈ 33.4 µg/mL) | 62.5 (≈ 16.7 µg/mL) | 62.5 (≈ 16.7 µg/mL) | 62.5 (≈ 16.7 µg/mL) | 62.5 (≈ 16.7 µg/mL) | 199 |  | 62.5 (≈ 16.7 µg/mL)
Cc1ccc(/C=C/c2nc3ccccc3o2)cc1 [Compound 5, 2-[(E)-2-(4-Methylphenyl)ethenyl]-1,3-benzoxazole] | 1.1226 | 250 (≈ 58.8 µg/mL) | 250 (≈ 58.8 µg/mL) | 125 (≈ 29.4 µg/mL) | 250 (≈ 58.8 µg/mL) | 250 (≈ 58.8 µg/mL) | 500 (≈ 118 µg/mL) | 102 |  | 
Clc1ccc(/C=C/c2nc3ccccc3o2)cc1 [Compound 6, 2-[(E)-2-(4-Chlorophenyl)ethenyl]-1,3-benzoxazole] | 1.1226 and 1.1271 | 250 (≈ 63.9 µg/mL) | 250 (≈ 63.9 µg/mL) | 250 (≈ 63.9 µg/mL) | 500 (≈ 128 µg/mL) | 500 (≈ 128 µg/mL) | 500 (≈ 128 µg/mL) | 517 |  | 500 (≈ 128 µg/mL)
FC(F)(F)c1ccc(/C=C/c2nc3ccccc3o2)cc1 [Compound 7, 2-{(E)-2-[4-(Trifluoromethyl)phenyl]ethenyl}-1,3-benzoxazole] | 1.1317 | 125 (≈ 36.2 µg/mL) | 250 (≈ 72.3 µg/mL) | 125 (≈ 36.2 µg/mL) | 250 (≈ 72.3 µg/mL) | 250 (≈ 72.3 µg/mL) | 500 (≈ 145 µg/mL) |  |  | 

Reference: PMC4146477, “Synthesis and Antimycobacterial and Photosynthesis-Inhibiting Evaluation of 2-[(E)-2-Substituted-ethenyl]-1,3-benzoxazoles” (The Scientific World Journal, 2014)
